The values that follow come from PMC12951568, “Identifying Structural Factors Governing the Photodynamic Activity of Phthalocyanines” (Journal of Medicinal Chemistry, 2026).

Read-outs that look alike come from different tables or passages of the source.

Series [1] is described as follows: Absorption and fluorescence emission spectra in DMF. Format: physicochemical. Particulars: in DMF. The protocol: (§1) An absorption spectrum of 2.475 mL of solvent (water, DMF, or PBS) was taken (i.e., absorption spectrum of baseline); then, 25 μL of stock solution was added to reach the final concentration of 1 μM in the cuvette, and the absorption and emission spectra were taken. Baseline of the solvent was subtracted from the obtained absorption spectrum to get the final absorption spectrum of the sample.

The nature of series [2]: Quantum yield of singlet oxygen production, comparative method with DPBF scavenger. The series is classed as physicochemical. Particulars: in DMF, ZnPc as reference. The gist of the method:
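Dye added from 100 μM DMF stock (or DMF/water, water); irradiated under stirring with xenon lamp through water filter and OG530 cut-off (>523 nm). DPBF decay followed at 415 nm; ΦΔ from ln(A0/At) slopes versus reference, normalised to absorbed light summed over 523–850 nm; triplicate means, ±10% error.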

Series [3] deals with MCF-7 (human breast adenocarcinoma). More on the design: method as in number not printed in Table 2. Particulars: 12 h incubation, Xe-lamp 15 min, λ > 570 nm, 11.2 J/cm^2; mean ± SD; determined previously under the same conditions at the same workplace and published; ref number not given; cited from earlier work.
For series [4], the system named is SK-MEL-28 (human skin melanoma). More on the design: method as in number not printed in Table 2. Particulars: 12 h incubation, Xe-lamp 15 min, λ > 570 nm, 11.2 J/cm^2; mean ± SD; determined previously under the same conditions at the same workplace and published; ref number not given; cited from earlier work.
The nature of series [5]: Log P, partition between n-octanol and PBS. The series is classed as physicochemical. The following applies: partition coefficient between 1-octanol and PBS. The gist of the method: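 Sample from 100 μM stock added to equal volumes of n-octanol and PBS, vortexed 5 min at rt, centrifuged. Each layer diluted into DMF and emission spectra recorded; log P taken as log of octanol/PBS integrated fluorescence ratio, mean of triplicates.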

For series [6], the system named is HeLa (human cervical carcinoma). Particulars: 12 h incubation, Xe-lamp 15 min, λ > 570 nm, 11.2 J/cm^2; mean ± SD; determined previously under the same conditions at the same workplace and published; ref number not given; read-out: EC50 (nM) HeLa; cited from earlier work.
Series [7] can be described thus: Fluorescence quantum yield, comparative method. Format: physicochemical. Particulars: in DMF; ZnPc as reference. The gist of the method:
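ΦF determined by the comparative method against ZnPc (ΦF 0.32 in THF), using integrated emission area, absorbance at the excitation wavelength and solvent refractive index. Q-band absorbance kept below 0.05; estimated error ± 15%.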

Series [8] can be described thus: Aggregation / monomerization in aqueous media (spectra in water and PBS). The series is classed as physicochemical. Particulars: 1 μM. How it is done: as §1
The nature of series [9]: Fluorescence lifetime in DMF. The series is classed as physicochemical. From the text: 1 Photophysical Data of Investigated Derivatives in DMF ^a | column: τF1/ns; τF2/ns
Series [10] concerns MCF-7 (human breast adenocarcinoma). Kind of series: Photodynamic activity (phototoxicity, neutral red uptake) on MCF-7. Format: cell-based. Particulars: 12 h incubation, Xe-lamp 15 min, λ > 570 nm, 11.2 J/cm^2; mean ± SD; t.w. = this work.

Regarding `Cc1cc(OCc2cn(CCOCCOCCO)nn2)c(Oc2cc3c(cc2Oc2c(OCc4cn(CCOCCOCCO)nn4)cc(C)cc2OCc2cn(CCOCCOCCO)nn2)C2=Nc4c5ccccc5c5[n]4[Zn][n]4c(c6ccccc6c4=NC3=N2)=NC2=NC(=N5)c3ccccc32)c(OCc2cn(CCOCCOCCO)nn2)c1` [N3Zn], in series [1], the “ε, extinction coefficient” value is reported as 280 340 M^–1cm^–1; the “λA, absorption maximum in the Q-band” value came to 672 nm; the “λF, fluorescence emission maximum” value worked out at 681 nm. Further, in series [2], the “ΦΔ, quantum yield of singlet oxygen production” value (from here on “ΦΔ, quantum yield”) stood at 0.48. The EC50 in series [3] was 1500 ± 300 nM. For the same compound, the EC50 in [4] is 900 ± 200 nM. The “Log P” value in [5] is 1.90. Moreover, the EC50 in series [6] was 2200 ± 160 nM. In [7], the “ΦF, fluorescence quantum yield” value turned out to be 0.28.

`Cc1cc(OCc2cn(CCO[C@@H]3O[C@H](CO)[C@@H](O)[C@H](O)[C@H]3O)nn2)c(Oc2cc3c(cc2Oc2c(OCc4cn(CCO[C@@H]5O[C@H](CO)[C@@H](O)[C@H](O)[C@H]5O)nn4)cc(C)cc2OCc2cn(CCO[C@@H]4O[C@H](CO)[C@@H](O)[C@H](O)[C@H]4O)nn2)C2=Nc4c5ccccc5c5[n]4[Zn][n]4c(c6ccccc6c4=NC3=N2)=NC2=NC(=N5)c3ccccc32)c(OCc2cn(CCO[C@@H]3O[C@H](CO)[C@@H](O)[C@H](O)[C@H]3O)nn2)c1` [N4Zn]: in series [1], the “ε, extinction coefficient” value is recorded as 293 750 M^–1cm^–1; the “λA, absorption maximum in the Q-band” value was 672 nm; the “λF, fluorescence emission maximum” value is listed as 681 nm. Besides, the “ΦΔ, quantum yield” value in [2] amounted to 0.59. The EC50 in [3] is 1200 ± 100 nM. Further, the EC50 in series [4] is 500 ± 100 nM. Besides, the “Log P” value in [5] is reported as “–0.65”. Further, in series [6], the half-maximal effective concentration (EC50) was 2070 ± 60 nM. Besides, the “ΦF, fluorescence quantum yield” value in series [7] is recorded as 0.29.

With `Cc1cc(Cn2cc[n+](C)c2)c(Oc2c3c(c(C)c(C)[n+]2C)C2=Nc4c5c(Oc6c(Cn7cc[n+](C)c7)cc(C)cc6Cn6cc[n+](C)c6)[n+](C)c(C)c(C)c5c5[n]4[Zn][n]4c(c6c(C)c(C)[n+](C)c(Oc7c(Cn8cc[n+](C)c8)cc(C)cc7Cn7cc[n+](C)c7)c6c4=NC4=NC(=N5)c5c4c(C)c(C)[n+](C)c5Oc4c(Cn5cc[n+](C)c5)cc(C)cc4Cn4cc[n+](C)c4)=NC3=N2)c(Cn2cc[n+](C)c2)c1.[I-].[I-].[I-].[I-].[I-].[I-].[I-].[I-].[I-].[I-].[I-].[I-]` [C11Zn], in series [1], the “ε, extinction coefficient” value was 160 750 M^–1cm^–1; the “λA, absorption maximum in the Q-band” value was determined as 716 nm; the “λF, fluorescence emission maximum” value is reported as 726 nm. In addition, the “ΦΔ, quantum yield” value in [2] stood at 0.53. The EC50 in series [3] was 2.8 ± 0.1 nM. In addition, the EC50 in series [4] is 3.8 ± 0.6 nM. In series [8], the “aggregation / monomeric state” value is recorded as “full monomerization”. For the same compound, the “Log P” value in [5] is reported as “–2.25”. Moreover, the EC50 in series [6] was 3.8 ± 0.2 nM. In series [7], the “ΦF, fluorescence quantum yield” value is reported as 0.21. Also, the “τF1, fluorescence lifetime (relative amplitude in brackets)” value in [9] worked out at 1.41 ns.

In the case of `CC[N+](CC)(CC)CCSc1cc2c(cc1SCC[N+](CC)(CC)CC)C1=Nc3c4cc(SCC[N+](CC)(CC)CC)c(SCC[N+](CC)(CC)CC)cc4c4[n]3[Zn][n]3c(c5cc(SCC[N+](CC)(CC)CC)c(SCC[N+](CC)(CC)CC)cc5c3=NC3=NC(=N4)c4cc(SCC[N+](CC)(CC)CC)c(SCC[N+](CC)(CC)CC)cc43)=NC2=N1.[I-].[I-].[I-].[I-].[I-].[I-].[I-].[I-]` [C8Zn], in series [1], the “ε, extinction coefficient” value was 281 600 M^–1cm^–1; the “λA, absorption maximum in the Q-band” value was found to be 704 nm; the “λF, fluorescence emission maximum” value is recorded as 714 nm. For the same compound, the “ΦΔ, quantum yield” value in [2] stood at 0.63. The EC50 in series [4] is 320 ± 48 nM. For the same compound, the “aggregation / monomeric state” value in series [8] is listed as “did not sufficiently suppress aggregation”. The compound further came in with an EC50 in [10] of 280 ± 40 nM. In addition, the “Log P” value in series [5] was “–1.59”. The concentration giving a half-maximal response (EC50) in series [6] was 540 ± 90 nM. Also, in series [7], the “ΦF, fluorescence quantum yield” value is listed as 0.29.

With `CC[N+](CC)(CC)CCSc1ccc(SCC[N+](CC)(CC)CC)c2c1C1=NC2=Nc2c3c(SCC[N+](CC)(CC)CC)ccc(SCC[N+](CC)(CC)CC)c3c3[n]2[Zn][n]2c(c4c(SCC[N+](CC)(CC)CC)ccc(SCC[N+](CC)(CC)CC)c4c2=NC2=NC(=N3)c3c(SCC[N+](CC)(CC)CC)ccc(SCC[N+](CC)(CC)CC)c32)=N1.[I-].[I-].[I-].[I-].[I-].[I-].[I-].[I-]` [C9Zn], in [1], the “ε, extinction coefficient” value is given as 134 170 M^–1cm^–1. In addition, the “λA, absorption maximum in the Q-band” value in [1] amounted to 757 nm. Further, the “λF, fluorescence emission maximum” value in series [1] came out at 783 nm. Further, the “ΦΔ, quantum yield” value in series [2] is 0.64. For the same compound, the EC50 was 220 ± 21 nM in series [4], 210 ± 10 nM in [10] and 310 ± 121 nM in series [6]. The “aggregation / monomeric state” value in series [8] is “did not sufficiently suppress aggregation”. In series [5], the “Log P” value is on record as “–1.65”. In addition, the “ΦF, fluorescence quantum yield” value in series [7] is given as 0.06.
